Experimental data from patent publication US20050197350A1, “Novel quinoline, tetrahydroquinazoline, and pyrimidine derivatives and methods of treatment related to the use thereof” (TAISHO PHARMACEUTICAL CO., LTD., priority 2003, published 2005).

System: MCH receptors
Experiment: MCH receptor activity class (method not given)
Details: class 1-3 by percent of control at 10^-7 M or IC50

With `CN(C)c1nc(N[C@H]2CC[C@@H](NC(=O)c3cccc([N+](=O)[O-])c3)CC2)nc2c1CCCC2` [compound 480] as the molecule, how does the class read?
Its class is 1 (Class 1: The value of percent of control at 10^−7 M was less than 40% or the value of IC50 was less than 50 nM.).

Which class does the source give for `CN(C)c1nc(N[C@H]2CC[C@@H](NC(=O)Cc3ccccc3)CC2)nc2c1CCCC2` [compound 481] here?
Its class is 3 (Class 3 The value of percent of control at 10^−7 M was more than 60% or the value of IC50 was more than 200 nM.).

With `CN(C)c1nc(N[C@H]2CC[C@@H](NC(=O)C3C[C@H]3c3ccccc3)CC2)nc2c1CCCC2` (stereo partly drawn) [compound 482, (2R)-N-(cis-4-{[4-(dimethylamino)-5,6,7,8-tetrahydroquinazolin-2-yl]amino}cyclohexyl)-2-phenylcyclopropanecarboxamide] as the molecule, how does the class read?
The class was 2 (Class 2: The value of percent of control at 10^−7 M was from 40% to 60% or the value of IC′50 was from 50 nM to 200 nM.).

How did the class turn out when `CN(C)c1nc(N[C@H]2CC[C@@H](NC(=O)c3ccc4c(c3)OCO4)CC2)nc2c1CCCC2` [compound 483] was run?
Its class is 3 (Class 3 The value of percent of control at 10^−7 M was more than 60% or the value of IC50 was more than 200 nM.).

For `Cc1cccc(C(=O)N[C@H]2CC[C@@H](Nc3nc4c(c(N(C)C)n3)CCCC4)CC2)c1` [compound 486], which class is on record?
Its class is 1 (Class 1: The value of percent of control at 10^−7 M was less than 40% or the value of IC50 was less than 50 nM.).

Which class does the source give for `Cc1ccc(C(=O)N[C@H]2CC[C@@H](Nc3nc4c(c(N(C)C)n3)CCCC4)CC2)cc1` [compound 487] here?
The class was 2 (Class 2: The value of percent of control at 10^−7 M was from 40% to 60% or the value of IC′50 was from 50 nM to 200 nM.).

`CN(C)c1nc(N[C@H]2CC[C@@H](NC(=O)c3cccs3)CC2)nc2c1CCCC2` [compound 488, N-(cis-4-{[4-(dimethylamino)-5,6,7,8-tetrahydroquinazolin-2-yl]amino}cyclohexyl)thiophene-2-carboxamide] was tested. Which class did it give?
Its class is 3 (Class 3 The value of percent of control at 10^−7 M was more than 60% or the value of IC50 was more than 200 nM.).

How did the class turn out when `CN(C)c1nc(N[C@H]2CC[C@@H](NC(=O)Cc3cccs3)CC2)nc2c1CCCC2` [compound 489] was run?
The class was 3 (Class 3 The value of percent of control at 10^−7 M was more than 60% or the value of IC50 was more than 200 nM.).

With `CN(C)c1nc(N[C@H]2CC[C@@H](NC(=O)c3cccc(OC(F)(F)F)c3)CC2)nc2c1CCCC2` [compound 490] as the molecule, how does the class read?
The class was 2 (Class 2: The value of percent of control at 10^−7 M was from 40% to 60% or the value of IC′50 was from 50 nM to 200 nM.).

`CN(C)c1nc(NC2CCC(NC(=O)OCc3ccccc3)CC2)nc2c1CCCC2` (centres unmarked) [compound 491] was tested. Which class did it give?
Its class is 3 (Class 3 The value of percent of control at 10^−7 M was more than 60% or the value of IC50 was more than 200 nM.).

Which class does the source give for `CN(C)c1nc(NC2CCC(NC(=O)OCc3ccc([N+](=O)[O-])cc3)CC2)nc2c1CCCC2` (centres unmarked) [compound 492] here?
Its class is 3 (Class 3 The value of percent of control at 10^−7 M was more than 60% or the value of IC50 was more than 200 nM.).

Which class does the source give for `Cc1cc(C(=O)N[C@H]2CC[C@@H](Nc3nc4c(c(N(C)C)n3)CCCC4)CC2)ccc1Br` [compound 493] here?
Its class is 2 (Class 2: The value of percent of control at 10^−7 M was from 40% to 60% or the value of IC′50 was from 50 nM to 200 nM.).

Which class does the source give for `CN(C)c1nc(N[C@H]2CC[C@@H](NC(=O)c3cccc(I)c3)CC2)nc2c1CCCC2` [compound 494] here?
The class was 1 (Class 1: The value of percent of control at 10^−7 M was less than 40% or the value of IC50 was less than 50 nM.).

With `CN(C)c1nc(N[C@H]2CC[C@@H](NC(=O)c3cccc(Cl)c3F)CC2)nc2c1CCCC2` [compound 495] as the molecule, how does the class read?
The class was 3 (Class 3 The value of percent of control at 10^−7 M was more than 60% or the value of IC50 was more than 200 nM.).

With `Cc1ccc(C(=O)N[C@H]2CC[C@@H](Nc3nc4c(c(N(C)C)n3)CCCC4)CC2)c(F)c1F` [compound 496] as the molecule, how does the class read?
Its class is 3 (Class 3 The value of percent of control at 10^−7 M was more than 60% or the value of IC50 was more than 200 nM.).

How did the class turn out when `CN(C)c1nc(N[C@H]2CC[C@@H](NC(=O)c3ccc(F)cc3Cl)CC2)nc2c1CCCC2` [compound 497] was run?
Its class is 2 (Class 2: The value of percent of control at 10^−7 M was from 40% to 60% or the value of IC′50 was from 50 nM to 200 nM.).

`CN(C)c1nc(N[C@H]2CC[C@@H](NC(=O)c3ccc(F)c(Cl)c3F)CC2)nc2c1CCCC2` [compound 498] was tested. Which class did it give?
The class was 3 (Class 3 The value of percent of control at 10^−7 M was more than 60% or the value of IC50 was more than 200 nM.).

`CN(C)c1nc(N[C@H]2CC[C@@H](NC(=O)CSc3ccccc3)CC2)nc2c1CCCC2` [compound 499] was tested. Which class did it give?
Its class is 3 (Class 3 The value of percent of control at 10^−7 M was more than 60% or the value of IC50 was more than 200 nM.).

How did the class turn out when `CN(C)c1nc(N[C@H]2CC[C@@H](NC(=O)c3cccc(C(F)(F)F)c3F)CC2)nc2c1CCCC2` [compound 500] was run?
Its class is 3 (Class 3 The value of percent of control at 10^−7 M was more than 60% or the value of IC50 was more than 200 nM.).

How did the class turn out when `CN(C)c1nc(N[C@H]2CC[C@@H](NC(=O)c3cc(C(F)(F)F)ccc3F)CC2)nc2c1CCCC2` [compound 501] was run?
Its class is 3 (Class 3 The value of percent of control at 10^−7 M was more than 60% or the value of IC50 was more than 200 nM.).

For `COc1cccc(CC(=O)N[C@H]2CC[C@@H](Nc3nc4c(c(N(C)C)n3)CCCC4)CC2)c1` [compound 503], which class is on record?
Its class is 2 (Class 2: The value of percent of control at 10^−7 M was from 40% to 60% or the value of IC′50 was from 50 nM to 200 nM.).

`CN(C)c1nc(N[C@H]2CC[C@@H](NC(=O)Cc3ccc(F)cc3)CC2)nc2c1CCCC2` [compound 504] was tested. Which class did it give?
Its class is 1 (Class 1: The value of percent of control at 10^−7 M was less than 40% or the value of IC50 was less than 50 nM.).

Which class does the source give for `COc1ccc(CC(=O)N[C@H]2CC[C@@H](Nc3nc4c(c(N(C)C)n3)CCCC4)CC2)cc1` [compound 505] here?
Its class is 2 (Class 2: The value of percent of control at 10^−7 M was from 40% to 60% or the value of IC′50 was from 50 nM to 200 nM.).

With `Cc1cc(C(=O)N[C@H]2CC[C@@H](Nc3nc4c(c(N(C)C)n3)CCCC4)CC2)c(C(F)(F)F)o1` [compound 506] as the molecule, how does the class read?
The class was 2 (Class 2: The value of percent of control at 10^−7 M was from 40% to 60% or the value of IC′50 was from 50 nM to 200 nM.).

How did the class turn out when `Cc1cc(C(=O)N[C@H]2CC[C@@H](Nc3nc4c(c(N(C)C)n3)CCCC4)CC2)c(C)o1` [compound 507] was run?
The class was 1 (Class 1: The value of percent of control at 10^−7 M was less than 40% or the value of IC50 was less than 50 nM.).

Which class does the source give for `CCOc1ccccc1C(=O)N[C@H]1CC[C@@H](Nc2nc3c(c(N(C)C)n2)CCCC3)CC1` [compound 508] here?
Its class is 3 (Class 3 The value of percent of control at 10^−7 M was more than 60% or the value of IC50 was more than 200 nM.).

For `CN(C)c1nc(N[C@H]2CC[C@@H](NC(=O)c3ccc(F)c(Cl)c3)CC2)nc2c1CCCC2` [compound 509], which class is on record?
Its class is 1 (Class 1: The value of percent of control at 10^−7 M was less than 40% or the value of IC50 was less than 50 nM.).

How did the class turn out when `Cc1ccc(C(=O)N[C@H]2CC[C@@H](Nc3nc4c(c(N(C)C)n3)CCCC4)CC2)cc1F` [compound 510] was run?
Its class is 2 (Class 2: The value of percent of control at 10^−7 M was from 40% to 60% or the value of IC′50 was from 50 nM to 200 nM.).

Which class does the source give for `CN(C)c1nc(N[C@H]2CC[C@@H](NC(=O)CC3CCCC3)CC2)nc2c1CCCC2` [compound 511] here?
Its class is 3 (Class 3 The value of percent of control at 10^−7 M was more than 60% or the value of IC50 was more than 200 nM.).

For `COc1cc(OC)cc(C(=O)N[C@H]2CC[C@@H](Nc3nc4c(c(N(C)C)n3)CCCC4)CC2)c1` [compound 512], which class is on record?
Its class is 1 (Class 1: The value of percent of control at 10^−7 M was less than 40% or the value of IC50 was less than 50 nM.).

For `CN(C)c1nc(N[C@H]2CC[C@@H](NC(=O)c3ccc(C#N)cc3)CC2)nc2c1CCCC2` [compound 513], which class is on record?
Its class is 3 (Class 3 The value of percent of control at 10^−7 M was more than 60% or the value of IC50 was more than 200 nM.).

Which class does the source give for `CN(C)c1nc(N[C@H]2CC[C@@H](NC(=O)c3cc(C(F)(F)F)cc(C(F)(F)F)c3)CC2)nc2c1CCCC2` [compound 514] here?
The class was 1 (Class 1: The value of percent of control at 10^−7 M was less than 40% or the value of IC50 was less than 50 nM.).

With `CN(C)c1nc(N[C@H]2CC[C@@H](NC(=O)/C=C/c3ccc([N+](=O)[O-])cc3)CC2)nc2c1CCCC2` [compound 515] as the molecule, how does the class read?
The class was 3 (Class 3 The value of percent of control at 10^−7 M was more than 60% or the value of IC50 was more than 200 nM.).

`CN(C)c1nc(N[C@H]2CC[C@@H](NC(=O)Cc3ccccc3Br)CC2)nc2c1CCCC2` [compound 516] was tested. Which class did it give?
The class was 3 (Class 3 The value of percent of control at 10^−7 M was more than 60% or the value of IC50 was more than 200 nM.).

How did the class turn out when `Cc1cc(C(=O)N[C@H]2CC[C@@H](Nc3nc4c(c(N(C)C)n3)CCCC4)CC2)ccc1F` [compound 517] was run?
The class was 1 (Class 1: The value of percent of control at 10^−7 M was less than 40% or the value of IC50 was less than 50 nM.).

For `CN(C)c1nc(N[C@H]2CC[C@@H](NC(=O)c3ccccc3SC(F)F)CC2)nc2c1CCCC2` [compound 518], which class is on record?
The class was 3 (Class 3 The value of percent of control at 10^−7 M was more than 60% or the value of IC50 was more than 200 nM.).

With `CN(C)c1nc(N[C@H]2CC[C@@H](NC(=O)c3cc(Cl)sc3Cl)CC2)nc2c1CCCC2` [compound 519, 2,5-dichloro-N-(cis-4-{[4-(dimethylamino)-5,6,7,8-tetrahydroquinazolin-2-yl]amino}cyclohexyl)thiophene-3-carboxamide] as the molecule, how does the class read?
The class was 1 (Class 1: The value of percent of control at 10^−7 M was less than 40% or the value of IC50 was less than 50 nM.).

With `CCCSc1ncccc1C(=O)N[C@H]1CC[C@@H](Nc2nc3c(c(N(C)C)n2)CCCC3)CC1` [compound 520] as the molecule, how does the class read?
Its class is 2 (Class 2: The value of percent of control at 10^−7 M was from 40% to 60% or the value of IC′50 was from 50 nM to 200 nM.).

Which class does the source give for `CN(C)c1nc(N[C@H]2CC[C@@H](NC(=O)c3cc(C(C)(C)C)nn3Cc3ccccc3)CC2)nc2c1CCCC2` [compound 521] here?
Its class is 2 (Class 2: The value of percent of control at 10^−7 M was from 40% to 60% or the value of IC′50 was from 50 nM to 200 nM.).

For `CN(C)c1nc(N[C@H]2CC[C@@H](NC(=O)c3cc(C(C)(C)C)nn3C)CC2)nc2c1CCCC2` [compound 522], which class is on record?
Its class is 3 (Class 3 The value of percent of control at 10^−7 M was more than 60% or the value of IC50 was more than 200 nM.).

Which class does the source give for `C/C(=C\c1ccccc1)C(=O)N[C@H]1CC[C@@H](Nc2nc3c(c(N(C)C)n2)CCCC3)CC1` [compound 523] here?
The class was 3 (Class 3 The value of percent of control at 10^−7 M was more than 60% or the value of IC50 was more than 200 nM.).
